In patent US11815435B2, “Beta glucan immunopharmacodynamics” (HiberCell, Inc., priority 2017, dated 2023):

Tested on: anti-β-glucan antibody (ABA IgG, ABA IgM)
Assay: Example 1: IgG and IgM ABA levels in a cancer subject on IVIG, IMPRIME PGG and pembrolizumab
Assay type: in vivo, human
Settings: same subject and regimen
Description: Soluble β-glucan immunotherapy was administered to a subject diagnosed with glucaganoma. The subject's ABA level prior to immunotherapy treatment placed them in the Low-ABA subgroup, and therefore, their ABA level was boosted by administration of IVIG. GAMMAGARD at 100 mg/ml was intravenously administered prior to each treatment, which provided 161 μg ABA/ml. […] Each cycle was 3 weeks.

Q: How did the “ABA IgG” value (cycle 1, day 2 EOI pembro) turn out when pembrolizumab [reference compound] was run?
A: The value was 18.2 µg/mL.

Q: What about the “ABA IgM” value (cycle 1, day 2 EOI pembro) of the same substance?
A: Its value is 5.3 µg/mL.

Q: And the “ABA IgG” value (cycle 2, day 1 EOI-pembro)?
A: Its value is 49.4 µg/mL.

Q: What about the “ABA IgM” value (cycle 2, day 1 EOI-pembro) of the same substance?
A: The value was 9.6 µg/mL.

Q: And the “ABA IgG” value (cycle 3, day 1 EOI-pembro)?
A: Its value is 60.7 µg/mL.
